Results published in ChEMBL document CHEMBL3352581, “Structure-activity relationships of non-opioid [des-Arg(7)]-dynorphin A analogues for bradykinin receptors” (Bioorg Med Chem Lett, 2014).
Where a SMILES comes first, the peptide text is derived from it. [ ]: non-standard residue; d: D form. Nle = CCCC[C@H](N)C(=O)O

What was measured:
[1] = Displacement of [3H]DALKD from bradykinin receptor in rat brain membranes by competition assay at pH 7.4; format: cell membranes, Membrane
[2] = Retention time of the compound by HPLC method; format: physicochemical
[3] = Displacement of [3H]DALKD from bradykinin receptor in rat brain membranes by competition assay; format: cell membranes, Membrane
[4] = Displacement of [3H]DALKD from bradykinin receptor in rat brain membranes by competition assay at pH 6.8; format: cell membranes, Membrane

| Molecule | IC50 [1] [µM] | Retention_time [2] [min] | IC50 [3] [µM] | pIC50 [3] | pIC50 [4] | pIC50 [1] | IC50 [4] [µM] |
| --- | --- | --- | --- | --- | --- | --- | --- |
| CC[C@H](C)[C@H](NC(=O)[C@H](CCCNC(=N)N)NC(=O)[C@H](CC(C)C)NC(=O)[C@@H](N)Cc1ccccc1)C(=O)N[C@@H](CCCNC(=N)N)C(=O)N1CCC[C@H]1C(=O)N[C@@H](CCCCN)C(=O)O | 0.19 | – | – | – | – | – | – |
| CCCC[C@H](NC(=O)[C@@H](N)Cc1ccccc1)C(=O)N[C@@H](CCCNC(=N)N)C(=O)N[C@H](C(=O)N[C@@H](CCCNC(=N)N)C(=O)N1CCC[C@H]1C(=O)N[C@@H](CCCCN)C(=O)O)[C@@H](C)CC | – | 10.5 | – | – | – | – | – |
| CCCC[C@H](NC(=O)[C@H](CCCNC(=N)N)NC(=O)[C@H](CC(C)C)NC(=O)[C@@H](N)Cc1ccccc1)C(=O)N[C@@H](CCCNC(=N)N)C(=O)N1CCC[C@H]1C(=O)N[C@@H](CCCCN)C(=O)O (H-FLR[Nle]RPK-OH) | – | 11.4 | 0.091 | 7.04 | – | – | – |
| CCCC[C@H](NC(=O)[C@H](CCCNC(=N)N)NC(=O)[C@H](CCCC)NC(=O)[C@@H](N)Cc1ccccc1)C(=O)N[C@@H](CCCNC(=N)N)C(=O)N1CCC[C@H]1C(=O)N[C@@H](CCCNC(=N)N)C(=O)O (H-F[Nle]R[Nle]RPR-OH) | – | – | 0.087 | 7.06 | – | – | – |
| CC[C@H](C)[C@H](NC(=O)[C@H](CCCNC(=N)N)NC(=O)[C@@H](N)CC(C)C)C(=O)N[C@@H](CCCNC(=N)N)C(=O)O (H-LRIR-OH) | – | 7 | – | – | 5.66 | 5.03 | – |
| CCCC[C@H](NC(=O)[C@H](CCCCN)NC(=O)[C@@H]1CCCN1C(=O)[C@H](CCCCN)NC(=O)[C@H](CCCC)NC(=O)[C@H](CCCCN)NC(=O)[C@@H](N)CCCC)C(=O)N[C@@H](CCCCN)C(=O)O (H-[Nle]K[Nle]KPK[Nle]K-OH) | – | – | 0.091 | 7.04 | – | – | – |
| H-FLARIRPK-OH | – | 11 | 0.26 | 6.58 | – | – | – |
| H-FLRAIRP-OH | – | 10.3 | 0.74 | 6.13 | – | – | – |
| H-FLRIR-OH | – | 9.6 | – | – | 6.12 | 5.67 | – |
| H-FLRIRRPK-OH | – | – | 0.074 | 7.13 | – | – | – |
| H-GGFLRIRPKLK-OH | – | 10.4 | – | – | 7.39 | – | – |
| H-LARIRPKLK-OH | – | 9.2 | – | 6.99 | – | – | – |

More lines, now with the values ahead:

| IC50 [1] [µM] | Retention_time [2] [min] | IC50 [3] [µM] | pIC50 [3] | pIC50 [4] | pIC50 [1] | IC50 [4] [µM] | Molecule |
| --- | --- | --- | --- | --- | --- | --- | --- |
| – | 9.7 | – | – | 7.2 | 6.95 | – | H-FLRIRPKLK-OH |
| – | 8.2 | – | – | 6.56 | 6.21 | – | H-GFLRIR-OH |
| – | 9.5 | – | – | – | 6.88 | – | H-GFLRIRPK-OH |
| – | 10.4 | – | – | 7.58 | 7.39 | – | H-GFLRIRPKLK-OH |
| – | 9.2 | – | 6.91 | – | – | – | H-LRAIRPKLK-OH |
| – | 6.3 | – | – | 6.71 | 6.74 | – | H-LRIRPK-OH |
| 0.068 | – | – | – | 7.52 | 7.17 | 0.03 | H-LRIRPKLK-OH |
